The subject of test [1] is U87MG cells. The experiment in a line: Anti-proliferation assay. The format is cell-based. To be noted: Homo sapiens, U-87 MG, 72 h, read-out: anti-proliferation IC50.
Test [2] relates to U87MG cells. Put plainly: Cell-cycle analysis. It is filed as cell-based, human. The note with it: 10 µM, 24 h, PI labeling.
The test system of test [3] is U87MG subcutaneous xenografts. Put plainly: Anti-glioblastoma study in subcutaneous U87MG tumor model. To be noted: 50 mg/kg oral every 2 days until 9th day, n = 8; saline 8.3-fold. It is filed as in vivo, Balb/c nude mice.
For another test, the target named is Integrin αvβ3 (UniProt P06756). The experiment in a line: SPR. For orientation: SPR reads the build-up and loss of mass on a sensor chip optically.

pIC50, pKd: −log10 of the molar value.

For `COc1ccc(C2=N[C@@H](c3ccc(Cl)cc3)[C@@H](c3ccc(Cl)cc3)N2C(=O)N2CCNC(=O)C2)c(OC(C)C)c1` [Nutlin-3], the pIC50 in the test with U87MG cells [1] was 5.12. For the same molecule, in the test on U87MG cells [2], the cell-cycle arrest entry is “effective cell-cycle arrest in the G1 and G2 phases”. For the molecule `Cn1nnc2c(C(N)=O)ncn2c1=O` [TMZ, temozolomide], the “tumor size fold increase on day 14 versus start of treatment” value in test [3] was 0.3 fold. For the molecule “c(RGDyK)-conjugated poly(ethylene glycol)-block-poly(lactic acid) micelle carrying the sPMI peptide”, in the test with Integrin αvβ3, the pKd (in general, the Kd on a negative log10 scale, so that one unit is a factor of ten) was 5.39.

Source of the values: paper PMC5878090 (Journal of controlled release : official journal of the …, 2015).
